Values of other authors as cited in patent US20080268045A1, “SUSTAINED RELEASE METHOTREXATE FORMULATIONS AND METHODS OF USE THEREOF” (Proprius Pharmaceuticals, Inc., priority 2006, published 2008).

CN(Cc1cnc2nc(N)nc(N)c2n1)c1ccc(C(=O)N[C@@H](CCC(=O)O)C(=O)O)cc1 [methotrexate]
Bioavailability of orally dosed methotrexate (higher dose strength (10-15 mg/dose)): 30-40% | Bioavailability of orally administered methotrexate (lower dose strength): ≤ 60%
